Assay results: ChEMBL document CHEMBL1697692, “Developing structure-activity relationships for the prediction of hepatotoxicity” (Chem Res Toxicol, 2010)

test system: Hepatotoxicity; assay: Literature-mined public compounds from Greene et al multi-species hepatotoxicity modelling dataset

Row | Compound | Hepatotoxicity
1 | CN(C)[C@@H]1C(O)=C(C(N)=O)C(=O)[C@@]2(O)C(O)=C3C(=O)c4c(O)ccc(Cl)c4[C@@H](O)[C@H]3C[C@@H]12.Cl [DEMECLOCYCLINE HYDROCHLORIDE] | HH: Evidence of human hepatotoxicity
2 | CNCCCN1c2ccccc2CCc2ccccc21 [DESIPRAMINE] | WE: Weak evidence (<10 case reports) of human hepatotoxicity
3 | C[C@@H]1C[C@H]2[C@@H]3CCC4=CC(=O)C=C[C@]4(C)[C@@]3(F)[C@@H](O)C[C@]2(C)[C@@]1(O)C(=O)CO [DEXAMETHASONE] | NE: No evidence of hepatotoxicity in any species
4 | C[C@H](N)Cc1ccccc1.C[C@H](N)Cc1ccccc1.O=S(=O)(O)O [DEXTROAMPHETAMINE SULFATE] | HH: Evidence of human hepatotoxicity
5 | Br.COc1ccc2c(c1)[C@]13CCCC[C@@H]1[C@H](C2)N(C)CC3.O [DEXTROMETHORPHAN HYDROBROMIDE] | NE: No evidence of hepatotoxicity in any species
6 | Cc1onc(-c2c(Cl)cccc2Cl)c1C(=O)N[C@@H]1C(=O)N2[C@@H]1SC(C)(C)[C@@H]2C(=O)[O-].O.[Na+] [DICLOXACILLIN SODIUM] | HH: Evidence of human hepatotoxicity
7 | O=c1[nH]cnc2c1ncn2[C@H]1CC[C@@H](CO)O1 [DIDANOSINE] | HH: Evidence of human hepatotoxicity
8 | CCN(CC)C(=O)N1CCN(C)CC1 [DIETHYLCARBAMAZINE] | HH: Evidence of human hepatotoxicity
9 | O=C(O)c1cc(-c2ccc(F)cc2F)ccc1O [DIFLUNISAL] | HH: Evidence of human hepatotoxicity
10 | C[C@H]1O[C@@H](O[C@H]2[C@@H](O)C[C@H](O[C@H]3[C@@H](O)C[C@H](O[C@H]4CC[C@@]5(C)[C@H](CC[C@@H]6[C@@H]5C[C@@H](O)[C@]5(C)[C@@H](C7=CC(=O)OC7)CC[C@]65O)C4)O[C@@H]3C)O[C@@H]2C)C[C@H](O)[C@@H]1O [DIGOXIN] | NE: No evidence of hepatotoxicity in any species
11 | C[C@H](CCc1ccccc1)NC[C@H](O)c1ccc(O)c(C(N)=O)c1 [DILEVALOL] | HH: Evidence of human hepatotoxicity
12 | OCC(S)CS (stereo not given) [DIMERCAPROL] | HH: Evidence of human hepatotoxicity
13 | O=C1CCC(=O)N1c1cc(Cl)cc(Cl)c1 [DIMETHACHLON] | AH: Evidence for animal hepatotoxicity but not tested in humans
14 | CN(C)C=O [DIMETHYLFORMAMIDE] | AH: Evidence for animal hepatotoxicity but not tested in humans
15 | CCOC(=O)C1(c2ccccc2)CCN(CCC(C#N)(c2ccccc2)c2ccccc2)CC1.Cl [DIPHENOXYLATE HYDROCHLORIDE] | NE: No evidence of hepatotoxicity in any species
16 | CC(C)N(CCC(C(N)=O)(c1ccccc1)c1ccccn1)C(C)C.O=P(O)(O)O (stereo not given) [DISOPYRAMIDE PHOSPHATE] | HH: Evidence of human hepatotoxicity
17 | CC(CCc1ccc(O)cc1)NCCc1ccc(O)c(O)c1.Cl (stereo not given) [DOBUTAMINE HYDROCHLORIDE] | NE: No evidence of hepatotoxicity in any species
18 | COc1cc2c(cc1OC)C(=O)C(CC1CCN(Cc3ccccc3)CC1)C2 (stereo not given) [DONEPEZIL] | WE: Weak evidence (<10 case reports) of human hepatotoxicity
19 | NCCc1ccc(O)c(O)c1 [DOPAMINE] | NE: No evidence of hepatotoxicity in any species
20 | COc1cccc2c1C(=O)c1c(O)c3c(c(O)c1C2=O)C[C@@](O)(C(=O)CO)C[C@@H]3O[C@H]1C[C@H](N)[C@H](O)[C@H](C)O1.Cl [DOXORUBICIN HYDROCHLORIDE] | HH: Evidence of human hepatotoxicity
21 | COc1cccc2c1C(=O)c1c(O)c3c(c(O)c1C2=O)C[C@@](O)(C(=O)CO)C[C@@H]3O[C@H]1C[C@H](N)[C@H](O)[C@H](C)O1 [DOXORUBICIN] | NE: No evidence of hepatotoxicity in any species
22 | Clc1ccc(COC(Cn2ccnc2)c2ccc(Cl)cc2Cl)cc1.O=[N+]([O-])O (stereo not given) [ECONAZOLE NITRATE] | NE: No evidence of hepatotoxicity in any species
23 | CC[N+](C)(C)c1cccc(O)c1.[Cl-] [EDROPHONIUM CHLORIDE] | NE: No evidence of hepatotoxicity in any species
24 | CCN(CC)CCOc1ccc(/C(=C(/Cl)c2ccccc2)c2ccccc2)cc1.O=C(O)CC(O)(CC(=O)O)C(=O)O [ENCLOMIPHENE CITRATE] | HH: Evidence of human hepatotoxicity
25 | CCN(CC)C(=O)/C(C#N)=C/c1cc(O)c(O)c([N+](=O)[O-])c1 [ENTACAPONE] | WE: Weak evidence (<10 case reports) of human hepatotoxicity
26 | COc1cccc2c1C(=O)c1c(O)c3c(c(O)c1C2=O)C[C@@](O)(C(=O)CO)C[C@@H]3O[C@H]1C[C@H](N)[C@@H](O)[C@H](C)O1 [EPIRUBICIN] | NE: No evidence of hepatotoxicity in any species
27 | CCCCc1ncc(/C=C(\Cc2cccs2)C(=O)O)n1Cc1ccc(C(=O)O)cc1 [EPROSARTAN] | WE: Weak evidence (<10 case reports) of human hepatotoxicity
28 | C=C1CC[C@H](O)C/C1=C/C=C1\CCC[C@]2(C)[C@@H]([C@H](C)/C=C/[C@H](C)C(C)C)CC[C@@H]12 [ERGOCALCIFEROL] | NE: No evidence of hepatotoxicity in any species

Row | Compound | Hepatotoxicity
29 | C[C@@H](CO)NC(=O)[C@@H]1C=C2c3cccc4[nH]cc(c34)C[C@H]2N(C)C1.O=C(O)/C=C\C(=O)O [ERGONOVINE MALEATE] | NE: No evidence of hepatotoxicity in any species
30 | CN1C[C@H](C(=O)N[C@]2(C)O[C@@]3(O)[C@@H]4CCCN4C(=O)[C@H](Cc4ccccc4)N3C2=O)C=C2c3cccc4[nH]cc(c34)C[C@H]21.CN1C[C@H](C(=O)N[C@]2(C)O[C@@]3(O)[C@@H]4CCCN4C(=O)[C@H](Cc4ccccc4)N3C2=O)C=C2c3cccc4[nH]cc(c34)C[C@H]21.O=C(O)C(O)C(O)C(=O)O [ERGOTAMINE TARTRATE] | NE: No evidence of hepatotoxicity in any species
31 | CCC(=O)O[C@H]1[C@H](O[C@@H]2[C@@H](C)[C@H](O[C@H]3C[C@@](C)(OC)[C@@H](O)[C@H](C)O3)[C@@H](C)C(=O)O[C@H](CC)[C@@](C)(O)[C@H](O)[C@@H](C)C(=O)[C@H](C)C[C@@]2(C)O)O[C@H](C)C[C@@H]1N(C)C.CCCCCCCCCCCCOS(=O)(=O)O [ERYTHROMYCIN ESTOLATE] | HH: Evidence of human hepatotoxicity
32 | CC[C@H]1OC(=O)[C@H](C)[C@@H](O[C@H]2C[C@@](C)(OC)[C@@H](O)[C@H](C)O2)[C@H](C)[C@@H](O[C@@H]2O[C@H](C)C[C@H](N(C)C)[C@H]2O)[C@](C)(O)C[C@@H](C)C(=O)[C@H](C)[C@@H](O)[C@]1(C)O [ERYTHROMYCIN] | WE: Weak evidence (<10 case reports) of human hepatotoxicity
33 | C[C@]12CC[C@@H]3c4ccc(O)cc4CC[C@H]3[C@@H]1CC[C@@H]2O[C@@H]1O[C@H](C(=O)O)[C@@H](O)[C@H](O)[C@H]1O [ESTRADIOL 17B GLUCURONIDE] | HH: Evidence of human hepatotoxicity
34 | C[C@]12CC[C@@H]3c4ccc(O)cc4CC[C@H]3[C@@H]1CC[C@@H]2O [ESTRADIOL] | WE: Weak evidence (<10 case reports) of human hepatotoxicity
35 | C[C@]12CC[C@@H]3c4ccc(O)cc4CC[C@H]3[C@@H]1CCC2=O [ESTRONE] | HH: Evidence of human hepatotoxicity
36 | CS(=O)(=O)OCCOS(C)(=O)=O [ETHANE DIMETHANE SULFONATE] | AH: Evidence for animal hepatotoxicity but not tested in humans
37 | C#C[C@]1(O)CC[C@H]2[C@@H]3CCc4cc(O)ccc4[C@H]3CC[C@@]21C [ETHINYL ESTRADIOL] | HH: Evidence of human hepatotoxicity
38 | CCC1(C)CC(=O)NC1=O (stereo not given) [ETHOSUXIMIDE] | HH: Evidence of human hepatotoxicity
39 | OCCO [ETHYLENE GLYCOL] | AH: Evidence for animal hepatotoxicity but not tested in humans
40 | C#C[C@]1(OC(C)=O)CC[C@H]2[C@@H]3CCC4=C[C@@H](OC(C)=O)CC[C@@H]4[C@H]3CC[C@@]21C [ETHYNODIOL DIACETATE] | HH: Evidence of human hepatotoxicity
41 | COc1cc([C@@H]2c3cc4c(cc3[C@@H](O[C@@H]3O[C@@H]5CO[C@@H](C)O[C@H]5[C@H](O)[C@H]3O)[C@H]3COC(=O)[C@H]23)OCO4)cc(OC)c1O [ETOPOSIDE] | HH: Evidence of human hepatotoxicity
42 | NC(N)=Nc1nc(CSCCC(N)=NS(N)(=O)=O)cs1 [FAMOTIDINE] | WE: Weak evidence (<10 case reports) of human hepatotoxicity
43 | NC(=O)OCC(COC(N)=O)c1ccccc1 [FELBAMATE] | HH: Evidence of human hepatotoxicity
44 | CC(C)OC(=O)C(C)(C)Oc1ccc(C(=O)c2ccc(Cl)cc2)cc1 [FENOFIBRATE] | HH: Evidence of human hepatotoxicity
45 | CC(C(=O)[O-])c1cccc(Oc2ccccc2)c1.[Na+] (stereo not given) [FENOPROFEN SODIUM] | HH: Evidence of human hepatotoxicity
46 | CC(C)(C(=O)O)c1ccc(C(O)CCCN2CCC(C(O)(c3ccccc3)c3ccccc3)CC2)cc1 (stereo not given) [FEXOFENADINE] | NE: No evidence of hepatotoxicity in any species
47 | O=c1[nH]c(=O)n([C@@H]2O[C@H](CO)[C@@H](O)[C@@H]2F)cc1I [FIALURIDINE] | HH: Evidence of human hepatotoxicity
48 | O=C(COc1ccc(Cl)cc1)N1CCN(Cc2ccc3c(c2)OCO3)CC1 [FIPEXIDE] | HH: Evidence of human hepatotoxicity
49 | CC(=O)O.O=C(NCC1CCCCN1)c1cc(OCC(F)(F)F)ccc1OCC(F)(F)F (stereo not given) [FLECAINIDE ACETATE] | HH: Evidence of human hepatotoxicity
50 | O=c1[nH]c(=O)n([C@H]2C[C@H](O)[C@@H](CO)O2)cc1F [FLOXURIDINE] | HH: Evidence of human hepatotoxicity
51 | OC(Cn1cncn1)(Cn1cncn1)c1ccc(F)cc1F [FLUCONAZOLE] | HH: Evidence of human hepatotoxicity
52 | Nc1nc(=O)[nH]cc1F [FLUCYTOSINE] | HH: Evidence of human hepatotoxicity
53 | CC(=O)OCC(=O)[C@@]1(O)CC[C@H]2[C@@H]3CCC4=CC(=O)CC[C@]4(C)[C@@]3(F)[C@@H](O)C[C@@]21C [FLUDROCORTISONE ACETATE] | NE: No evidence of hepatotoxicity in any species
54 | O=C(O)c1ccccc1Nc1cccc(C(F)(F)F)c1 [FLUFENAMIC ACID] | WE: Weak evidence (<10 case reports) of human hepatotoxicity
55 | CCOC(=O)c1ncn2c1CN(C)C(=O)c1cc(F)ccc1-2 [FLUMAZENIL] | NE: No evidence of hepatotoxicity in any species
